# Assays:
# [1] = system: Human immunodeficiency virus 1; assay: In vitro antiviral activity against HIV1 subtype F clinical isolate BZ126; type: functional, organism-based; settings: Human immunodeficiency virus 1, BZ126
# [2] = system: Human immunodeficiency virus 1; assay: In vitro antiviral activity against fully replicating HIV1 harboring Gag […]/V370A mutant by multicycle assay; type: functional, organism-based
# [3] = Volume of distribution at steady state in Cynomolgus monkey at 2 mg/kg, iv; type: ADME, organism-based, Macaca fascicularis; settings: in vivo, read-out: Vdss
# [4] = system: Human immunodeficiency virus 1; assay: In vitro antiviral activity against fully replicating HIV1 harboring Gag V370A/deltaV371 mutant by multicycle assay; type: functional, organism-based
# [5] = Volume of distribution at steady state in mouse at 1 mg/kg, iv; type: ADME, organism-based; settings: in vivo, read-out: Vdss
# [6] = Metabolic stability in dog liver microsomes assessed as half life; type: ADME, Canis lupus familiaris, Microsome
# [7] = Half life in normal healthy human volunteers plasma at 10 mg for 15 days and followed by 30 mg; type: ADME, cell-free; settings: time 15 day
# Cytochrome P450 2D6 = Cytochrome P450 2D6 (Homo sapiens, UniProt P10635); assay: Inhibition of CYP2D6 (unknown origin); type: ADME
# [8] = system: Human immunodeficiency virus 1; assay: In vitro antiviral activity against fully replicating pseudotype HIV1 harboring Gag deltaV370 mutant by single cycle assay; type: functional, organism-based
# [9] = Oral bioavailability in Cynomolgus monkey at 5 mg/kg; type: ADME, organism-based, Macaca fascicularis; settings: in vivo
# Cytochrome P450 3A4 = Cytochrome P450 3A4 (Homo sapiens, UniProt P08684); assay: Inhibition of CYP3A4 (unknown origin); type: ADME
# [10] = Aqueous solubility of compound; type: physicochemical; settings: buffer
# [11] = Metabolic stability in human liver microsomes assessed as half life; type: ADME, Microsome
# [12] = Aqueous solubility of compound in fasted state simulated intestinal fluid (FaSSIF) at pH 6.6; type: physicochemical
# [13] = system: Human immunodeficiency virus 1; assay: Ratio of EC50 for antiviral activity against fully replicating HIV1 harboring Gag V370A mutant by multicycle assay to EC50 for antiviral activity against fully replicating wild type HIV1 NLRepRluc-P373S by multicycle assay; type: functional
# [14] = system: Human immunodeficiency virus 1; assay: In vitro antiviral activity against fully replicating HIV1 NL4-3 harboring Gag T332S/V362I/prR41G mutant; type: functional, organism-based; settings: Human immunodeficiency virus 1, NL4-3
# [15] = Elimination half life in Cynomolgus monkey at 2 mg/kg, iv; type: ADME, organism-based, Macaca fascicularis; settings: in vivo, read-out: beta t1/2 (converted)
# [16] = Elimination half life in Cynomolgus monkey at 5 mg/kg, po; type: ADME, organism-based, Macaca fascicularis; settings: in vivo, read-out: beta t1/2 (converted)
# [17] = AUC (infinity) in rat at 5 mg/kg, po; type: ADME, organism-based; settings: in vivo
# [18] = system: Human immunodeficiency virus 1; assay: In vitro antiviral activity against fully replicating wild type HIV1 NLRepRluc-P373S assessed as maximum percent inhibition by multicycle assay relative to control; type: functional
# [19] = system: Human immunodeficiency virus 1; assay: In vitro antiviral activity against fully replicating wild type HIV1 harboring NLRepRluc-P373S by multicycle assay; type: functional, organism-based
# [20] = system: Human immunodeficiency virus 1; assay: Ratio of EC50 for antiviral activity against fully replicating HIV1 harboring Gag V370A/deltaV371 by multicycle assay to EC50 for antiviral activity against fully replicating wild type HIV1 NLRepRluc-P373S by multicycle assay; type: functional
# [21] = system: Human immunodeficiency virus 1; assay: In vitro antiviral activity against HIV1 subtype B clinical isolate 92T593; type: functional, organism-based; settings: Human immunodeficiency virus 1, 92T593
# [22] = AUC (infinity) in Cynomolgus monkey at 5 mg/kg, po; type: ADME, organism-based, Macaca fascicularis; settings: in vivo
# [23] = Aqueous solubility of compound in fed state simulated intestinal fluid (FeSSIF); type: physicochemical; settings: simulated gi fluid
# [24] = AUC (infinity) in dog at 2 mg/kg, iv; type: ADME, organism-based, Canis lupus familiaris; settings: in vivo
# [25] = system: Human immunodeficiency virus 1; assay: In vitro antiviral activity against fully replicating HIV1 harboring Gag deltaV370 mutant assessed as maximum percent inhibition by multicycle assay relative to control; type: functional
# [26] = system: Human immunodeficiency virus 1; assay: Binding affinity to HIV1 Gag A364V mutant assessed as dissociation half life by virus-like particle (VLP) assay
# [27] = system: Human immunodeficiency virus 1; assay: In vitro antiviral activity against fully replicating HIV1 harboring Gag […]/V370A mutant assessed as maximum percent inhibition by multicycle assay relative to control; type: functional
# [28] = system: Human immunodeficiency virus 1; assay: In vitro antiviral activity against fully replicating HIV1 harboring Gag T332S/[…]/prR41G mutant assessed as maximum percent inhibition by multicycle assay relative to control; type: functional
# [29] = AUC (infinity) in Cynomolgus monkey at 2 mg/kg, iv; type: ADME, organism-based, Macaca fascicularis; settings: in vivo
# [30] = Clearance in rat at 1 mg/kg, iv; type: ADME, organism-based; settings: in vivo
# [31] = system: Human immunodeficiency virus 1; assay: In vitro antiviral activity against fully replicating HIV1 harboring Gag deltaV370 mutant by multicycle assay; type: functional, organism-based
# [32] = system: Human immunodeficiency virus 1; assay: In vitro antiviral activity against fully replicating HIV1 harboring Gag V370A mutant by multicycle assay; type: functional, organism-based
# [33] = system: Human immunodeficiency virus 1; assay: Ratio of EC50 for antiviral activity against fully replicating HIV1 harboring Gag deltaV370 mutant by multicycle assay to EC50 for antiviral activity against fully replicating wild type HIV1 NLRepRluc-P373S by multicycle assay; type: functional
# [34] = system: Human immunodeficiency virus 1; assay: Ratio of EC50 for antiviral activity against fully replicating HIV1 harboring to Gag T332S/[…]/prR41G mutant by multicycle assay to EC50 for antiviral activity against fully replicating wild type HIV1 NLRepRluc-P373S by multicycle assay; type: functional
# [35] = system: Human immunodeficiency virus 1; assay: In vitro antiviral activity against HIV1 subtype D clinical isolate UG270; type: functional, organism-based; settings: Human immunodeficiency virus 1, UG270
# [36] = system: Human immunodeficiency virus 1; assay: In vitro antiviral activity against fully replicating wild type HIV1 NL4-3 in presence of human serum; type: functional, organism-based; settings: Human immunodeficiency virus 1, NL4-3
# [37] = Clearance in Cynomolgus monkey at 2 mg/kg, iv; type: ADME, organism-based, Macaca fascicularis; settings: in vivo
# [38] = system: Human immunodeficiency virus 1; assay: In vitro antiviral activity against fully replicating pseudotype HIV1 harboring Gag V370A mutant assessed as maximum percent inhibition by single cycle assay relative to control; type: functional
# Cytochrome P450 2B6 = molecular target: T1, Cytochrome P450 2B6 (Homo sapiens, UniProt P20813); assay: Inhibition of CYP2B6 (unknown origin); type: ADME
# T1 sequence (P20813 whole entry): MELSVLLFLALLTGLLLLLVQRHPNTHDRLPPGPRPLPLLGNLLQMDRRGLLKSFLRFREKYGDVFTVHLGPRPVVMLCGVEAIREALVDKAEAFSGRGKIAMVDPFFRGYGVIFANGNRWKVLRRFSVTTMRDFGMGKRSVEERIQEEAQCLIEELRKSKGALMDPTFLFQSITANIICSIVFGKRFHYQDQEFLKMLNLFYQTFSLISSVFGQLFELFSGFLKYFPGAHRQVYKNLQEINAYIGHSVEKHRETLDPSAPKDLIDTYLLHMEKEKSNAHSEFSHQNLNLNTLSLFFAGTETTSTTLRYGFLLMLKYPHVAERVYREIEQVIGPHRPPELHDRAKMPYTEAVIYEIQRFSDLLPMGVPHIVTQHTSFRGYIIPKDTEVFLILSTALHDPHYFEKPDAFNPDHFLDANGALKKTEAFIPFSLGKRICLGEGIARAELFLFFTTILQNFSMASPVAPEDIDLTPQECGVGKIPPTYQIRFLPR
# Cytochrome P450 2C19 = Cytochrome P450 2C19 (Homo sapiens, UniProt P33261); assay: Inhibition of CYP2C19 (unknown origin); type: ADME
# [39] = Metabolic stability in mouse liver microsomes assessed as half life; type: ADME, Microsome
# [40] = system: Human immunodeficiency virus 1; assay: In vitro antiviral activity against fully replicating HIV1 harboring Gag V370A/deltaV371 mutant assessed as maximum percent inhibition by multicycle assay relative to control; type: functional
# Sequence of Cytochrome P450 2D6 (P10635 whole entry): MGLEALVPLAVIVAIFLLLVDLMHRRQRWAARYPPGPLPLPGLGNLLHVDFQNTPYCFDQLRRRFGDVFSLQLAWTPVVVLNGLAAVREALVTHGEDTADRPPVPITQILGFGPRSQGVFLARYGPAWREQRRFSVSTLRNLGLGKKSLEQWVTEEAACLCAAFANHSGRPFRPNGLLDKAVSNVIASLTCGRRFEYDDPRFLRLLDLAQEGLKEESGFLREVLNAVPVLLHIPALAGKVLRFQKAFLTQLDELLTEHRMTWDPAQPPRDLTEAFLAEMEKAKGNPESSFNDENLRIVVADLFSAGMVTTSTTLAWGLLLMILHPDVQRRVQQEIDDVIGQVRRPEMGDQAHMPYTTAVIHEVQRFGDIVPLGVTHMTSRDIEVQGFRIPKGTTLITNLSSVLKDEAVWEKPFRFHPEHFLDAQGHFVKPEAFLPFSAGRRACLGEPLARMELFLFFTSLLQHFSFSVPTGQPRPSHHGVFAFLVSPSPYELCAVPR
# Sequence of Cytochrome P450 2C19 (P33261 whole entry): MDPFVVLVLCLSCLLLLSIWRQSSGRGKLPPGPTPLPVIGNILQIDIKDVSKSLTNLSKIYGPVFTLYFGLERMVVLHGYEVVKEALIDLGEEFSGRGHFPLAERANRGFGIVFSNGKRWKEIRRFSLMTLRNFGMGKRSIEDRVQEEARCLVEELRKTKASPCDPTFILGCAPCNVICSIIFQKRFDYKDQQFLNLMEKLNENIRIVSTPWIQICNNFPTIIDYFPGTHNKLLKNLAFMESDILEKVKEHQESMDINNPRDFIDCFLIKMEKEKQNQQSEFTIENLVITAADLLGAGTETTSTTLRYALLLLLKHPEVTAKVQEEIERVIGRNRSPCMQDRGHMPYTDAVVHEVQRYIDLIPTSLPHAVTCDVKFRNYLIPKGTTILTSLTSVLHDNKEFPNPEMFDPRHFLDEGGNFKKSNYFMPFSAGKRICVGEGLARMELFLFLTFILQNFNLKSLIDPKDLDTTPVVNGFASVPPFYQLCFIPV
# Sequence of Cytochrome P450 3A4 (P08684 whole entry): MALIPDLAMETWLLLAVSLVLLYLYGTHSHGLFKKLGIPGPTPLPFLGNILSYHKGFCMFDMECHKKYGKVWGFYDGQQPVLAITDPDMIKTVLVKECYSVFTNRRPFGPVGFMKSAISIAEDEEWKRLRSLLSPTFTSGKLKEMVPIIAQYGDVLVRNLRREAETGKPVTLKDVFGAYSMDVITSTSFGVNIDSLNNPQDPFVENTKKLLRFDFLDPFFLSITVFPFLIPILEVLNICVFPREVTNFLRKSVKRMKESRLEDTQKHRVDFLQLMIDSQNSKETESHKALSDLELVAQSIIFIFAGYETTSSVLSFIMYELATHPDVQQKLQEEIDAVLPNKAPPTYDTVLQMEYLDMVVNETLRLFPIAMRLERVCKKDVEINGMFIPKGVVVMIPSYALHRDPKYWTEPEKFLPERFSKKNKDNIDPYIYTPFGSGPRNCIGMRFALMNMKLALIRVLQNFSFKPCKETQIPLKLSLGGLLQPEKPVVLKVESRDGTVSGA
structure (smiles),measurement,setting,value
C=C(C)[C@@H]1CC[C@]2(NCCN3CCS(=O)(=O)CC3)CC[C@]3(C)[C@H](CC[C@@H]4[C@@]5(C)CC=C(C6=CC[C@](COc7ncccc7C#N)(C(=O)O)CC6)C(C)(C)[C@@H]5CC[C@]43C)[C@@H]12,EC50,[1],2 nM
same,EC50,[2],2 nM
same,Vd,[3],0.3 L/kg
same,EC50,[4],5 nM
same,Vd,[5],0.53 L/kg
same,half-life,[6],> 2 h
same,half-life,[7],67 h
same,IC50,Cytochrome P450 2D6,> 4400 nM
same,EC50,[8],12 nM
same,bioavailability,[9],43.5%
same,IC50,Cytochrome P450 3A4,> 4400 nM
same,solubility,[10],< 1000 µg/mL
same,half-life,[11],> 2 h
same,solubility,[12],19000 µg/mL
same,Ratio EC50,[13],2
same,EC50,[14],8 nM
same,half-life,[15],12.3 h
same,half-life,[16],11.4 h
same,AUC(0-inf),[17],36.3 µM·h
same,Imax,[18],99.1%
same,EC50,[19],2 nM
same,Ratio EC50,[20],2.5
same,EC50,[21],1 nM
same,AUC(0-inf),[22],56.3 µM·h
same,solubility,[23],363 µg/mL
same,AUC(0-inf),[24],99.8 µM·h
same,Imax,[25],97.6%
same,T1/2,[26],0.483 h
same,Imax,[27],94%
same,Imax,[28],98%
same,AUC(0-inf),[29],65.5 µM·h
same,clearance,[30],1.23 mL/min/kg
same,EC50,[31],4 nM
same,EC50,[32],4 nM
same,Ratio EC50,[33],2
same,Ratio EC50,[34],4
same,EC50,[35],2 nM
same,EC50,[36],26 nM
same,clearance,[37],0.32 mL/min/kg
same,Imax,[38],99%
same,IC50,Cytochrome P450 2B6,> 4400 nM
same,IC50,Cytochrome P450 2C19,> 4400 nM
same,half-life,[39],> 2 h
same,Imax,[40],92.2%

# Reference: ChEMBL document CHEMBL6071211, “Invention of VH-937, a Potent HIV-1 Maturation Inhibitor with the Potential for Infrequent Oral Dosing in Humans” (ACS Med Chem Lett, 2024)
